According to patent publication US11767322B2 (BRISTOL-MYERS SQUIBB COMPANY, priority 2020, dated 2023):
Read-outs that look alike come from different tables or passages of the source.

Legend:
[1] = biological target: T1, His-GST-TVMV-hRIPK1(1-324) (Homo sapiens, UniProt Q13546); test: biochemical; assay type: binding
T1 construct: The coding region of human RIPK1(1-324) flanked by NdeI site at 5′ end; made in house; host or cells: Spodoptera frugiperda Sf9 insect cells (baculovirus, Bac-to-Bac)
T1 sequence (Q13546 1-324): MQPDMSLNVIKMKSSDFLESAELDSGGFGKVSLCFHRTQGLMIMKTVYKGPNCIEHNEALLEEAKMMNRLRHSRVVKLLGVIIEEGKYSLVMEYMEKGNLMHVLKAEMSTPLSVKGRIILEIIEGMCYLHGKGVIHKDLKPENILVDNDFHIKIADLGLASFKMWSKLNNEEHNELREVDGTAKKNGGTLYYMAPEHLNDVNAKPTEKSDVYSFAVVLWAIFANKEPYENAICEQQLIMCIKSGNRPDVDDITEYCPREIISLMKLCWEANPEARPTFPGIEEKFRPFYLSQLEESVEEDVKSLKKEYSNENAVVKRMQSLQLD

[2] = test system: MLKL phosphorylation in HT29-L23 human colorectal adenocarcinoma cells; test: MLKL phosphorylation high-content assay; assay type: cell-based
[3] = biological target: GST-tagged PIK3Cδ in complex with PIK3R1 (Homo sapiens, UniProt O00329); test: PI3Kδ HTRF binding assay; conditions: HTRF probe displacement, 1 h at rt; read-out: PIK3CD IC50
[4] = HTRF probe displacement, 1 h at rt, read-out: RIPK1 IC50
[5] = Homo sapiens, 6 h, read-out: pMLKL IC50, HT29-L23 cells, necroptosis induced with TNFα, SMAC mimetic and Z-VAD, 6 h, maximal inhibition defined by Nec1s
[6] = Table 22, compounds of the present invention, read-out: RPIK1 IC50
[7] = read-out: pMLKL IC50, HT29-L23 cells, necroptosis induced with TNFα, SMAC mimetic and Z-VAD, 6 h, maximal inhibition defined by Nec1s

Sequence of GST-tagged PIK3Cδ in complex with PIK3R1 (O00329 whole entry): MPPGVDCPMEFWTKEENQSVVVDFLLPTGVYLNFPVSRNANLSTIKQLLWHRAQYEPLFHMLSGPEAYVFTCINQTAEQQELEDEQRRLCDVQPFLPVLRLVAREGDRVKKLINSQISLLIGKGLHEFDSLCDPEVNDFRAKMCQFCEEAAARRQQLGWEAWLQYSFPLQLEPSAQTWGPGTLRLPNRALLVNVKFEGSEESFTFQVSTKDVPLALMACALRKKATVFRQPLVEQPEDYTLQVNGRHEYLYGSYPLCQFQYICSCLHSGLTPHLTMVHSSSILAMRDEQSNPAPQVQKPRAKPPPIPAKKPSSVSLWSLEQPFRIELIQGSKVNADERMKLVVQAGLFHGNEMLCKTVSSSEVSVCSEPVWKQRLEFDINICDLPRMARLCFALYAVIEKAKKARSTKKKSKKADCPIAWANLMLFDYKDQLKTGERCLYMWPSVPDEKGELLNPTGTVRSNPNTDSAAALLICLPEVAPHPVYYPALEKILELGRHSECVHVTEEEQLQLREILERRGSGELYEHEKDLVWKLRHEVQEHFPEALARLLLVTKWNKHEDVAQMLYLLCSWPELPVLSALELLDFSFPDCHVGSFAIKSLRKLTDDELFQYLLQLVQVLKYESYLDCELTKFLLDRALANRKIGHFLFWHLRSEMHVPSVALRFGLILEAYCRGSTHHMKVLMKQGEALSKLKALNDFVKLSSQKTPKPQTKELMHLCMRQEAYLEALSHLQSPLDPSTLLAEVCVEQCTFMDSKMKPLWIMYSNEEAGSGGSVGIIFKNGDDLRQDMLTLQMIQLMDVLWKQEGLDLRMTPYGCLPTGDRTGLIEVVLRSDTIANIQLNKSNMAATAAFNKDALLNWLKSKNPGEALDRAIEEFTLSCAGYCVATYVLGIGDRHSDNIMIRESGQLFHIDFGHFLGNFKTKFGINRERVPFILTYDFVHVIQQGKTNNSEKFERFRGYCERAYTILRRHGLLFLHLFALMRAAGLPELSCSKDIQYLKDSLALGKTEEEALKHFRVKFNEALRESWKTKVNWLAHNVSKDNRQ
Sequence of GST-tagged PIK3Cδ in complex with PIK3R1 (P27986 whole entry partner): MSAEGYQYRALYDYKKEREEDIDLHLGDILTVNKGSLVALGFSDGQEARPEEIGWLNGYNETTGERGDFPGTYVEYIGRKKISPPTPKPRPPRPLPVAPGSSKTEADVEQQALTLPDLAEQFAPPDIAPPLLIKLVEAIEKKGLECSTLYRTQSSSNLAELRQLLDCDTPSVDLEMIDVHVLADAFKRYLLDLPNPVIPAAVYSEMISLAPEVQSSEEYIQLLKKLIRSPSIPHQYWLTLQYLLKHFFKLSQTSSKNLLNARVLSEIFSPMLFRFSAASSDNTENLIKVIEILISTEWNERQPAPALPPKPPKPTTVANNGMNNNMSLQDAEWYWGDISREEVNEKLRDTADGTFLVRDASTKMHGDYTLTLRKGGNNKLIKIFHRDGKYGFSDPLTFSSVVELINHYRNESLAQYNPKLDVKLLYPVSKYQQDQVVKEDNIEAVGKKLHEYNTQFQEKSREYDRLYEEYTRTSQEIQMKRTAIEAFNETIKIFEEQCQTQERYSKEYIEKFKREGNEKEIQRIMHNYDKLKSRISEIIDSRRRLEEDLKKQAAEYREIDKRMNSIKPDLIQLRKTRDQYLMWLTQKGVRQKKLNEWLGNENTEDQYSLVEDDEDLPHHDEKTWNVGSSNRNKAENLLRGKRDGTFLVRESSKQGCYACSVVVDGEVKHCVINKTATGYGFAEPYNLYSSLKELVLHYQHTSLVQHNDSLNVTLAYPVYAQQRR

| SMILES | IC50 [1, 4] [nM] | IC50 [2, 5] [nM] | IC50 [3] [nM] | IC50 [1, 6] [nM] | IC50 [2, 7] [nM] | IC50 ([2]; read-out: pMLKL IC50, Table 22, compounds of the present invention) [nM] | IC50 ([2]; Homo sapiens, 6 h, HT29-L23 cells, necroptosis induced with TNFα, SMAC mimetic and Z-VAD, 6 h, maximal inhibition defined by Nec1s, read-out: pMLKL IC50) [nM] | IC50 ([2]; Homo sapiens, Table 22, compounds of the present invention, read-out: pMLKL IC50) [nM] |
| --- | --- | --- | --- | --- | --- | --- | --- | --- |
| Nc1nc2cc(-c3ccc(Cl)c(C(=O)NCC(F)(F)C(O)c4ccc(Cl)c(Cl)n4)c3F)ccn2n1 (single isomer, unassigned) [Example 272, 3-(2-amino-[1,2,4]triazolo[1,5-a]pyridin-7-y)-6-chloro-N-(3-(5,6-dichloropyridin-2-yl)-2,2-difluoro-3-hydroxypropyl)-2-fluorobenzamide] | 6.8 | 11 | > 15000 | – | – | – | – | – |
| CCc1ccc(-c2ccn3nc(N)nc3c2)c(F)c1C(=O)NCC[C@H](O)c1ccc(Cl)cc1 [Example 155, (S)-3-(2-amino-[1,2,4]triazolo[1,5-a]pyridin-7-yl)-N-(3-(4-chlorophenyl)-3-hydroxypropyl)-6-ethyl-2-fluorobenzamide] | 2.7 | 0.6 | > 15000 | – | – | – | – | – |
| Cc1ccc(-c2ccn3nc(N)nc3c2)c(F)c1C(=O)NCCC(O)c1ccc(F)c(F)c1 (single isomer, unassigned) [Example 67, 3-(2-amino-[1,2,4]triazolo[1,5-a]pyridin-7-yl)-N-(3-(3,4-difluorophenyl)-3-hydroxypropyl)-2-fluoro-6-methylbenzamide] | 4.4 | – | > 15000 | 4.4 | 1.3 | 1.3 | – | – |
| Cc1ccc(-c2ccn3nc(N)nc3c2)c(F)c1C(=O)NCC(F)(F)C(C)(O)c1ccc(Cl)cc1 (single isomer, unassigned) [Example 221, 3-(2-amino-[1,2,4]triazolo[1,5-a]pyridin-7-yl)-N-(3-(4-chlorophenyl)-2,2-difluoro-3-hydroxybutyl)-2-fluoro-6-methylbenzamide] | 3.2 | 0.9 | > 15000 | – | – | – | – | – |
| Cc1ccc(-c2ccn3nc(N)nc3c2)c(F)c1C(=O)NCCC(O)c1c(F)cccc1F (single isomer, unassigned) [Example 74, 3-(2-amino-[1,2,4]triazolo[1,5-a]pyridin-7-yl)-Nr-(3-(2,6-difluorophenyl)-3-hydroxypropyl)-2-fluoro-6-methylbenzamide] | 13 | 8.2 | > 15000 | – | – | – | – | – |
| Cc1ccc(-c2ccn3nc(N)nc3c2)c(F)c1C(=O)NCCC(C)(C)c1ccccc1 [Example 58, 3-(2-amino-[1,2,4]triazolo[1,5-a]pyridin-7-yl)-2-fluoro-6-methyl-N-(3-methyl-3-phenylbutyl)benzamide] | 2.1 | 2.3 | > 15000 | – | – | – | – | – |
| Cc1ccc(-c2ccn3nc(N)nc3c2)c(F)c1C(=O)NCC(F)(F)C(O)c1ccc(F)cn1 (stereo not shown) [Example 270, 3-{2-amino-[1,2,4]triazolo[1,5-a]pyridin-7-yl}-N-[2,2-difluoro-3-(5-fluoropyridin-2-yl)-3-hydroxypropyl]-2-fluoro-6-methylbenzamide] | 11 | – | > 15000 | – | 3.1 | – | – | – |
| Cc1ccc(-c2ccn3nc(N)nc3c2)c(F)c1C(=O)NC(C)CC(O)c1ccc(F)cc1 (single isomer, unassigned) [Example 38, 3-(2-amino-[1,2,4]triazolo[1,5-a]pyridin-7-yl)-2-fluoro-N-(4-(4-fluorophenyl)-4-hydroxybutan-2-yl)-6-methylbenzamide] | 4.7 | – | > 15000 | – | 6 | – | – | – |
| Cc1ccc(-c2ccn3nc(N)nc3c2)c(F)c1C(=O)NCCC(O)c1ccc(Cl)cc1F (single isomer, unassigned) [Example 69, 3-(2-amino-[1,2,4]triazolo[1,5-a]pyridin-7-yl)-N-(3-(4-chloro-2-fluorophenyl)-3-hydroxypropyl)-2-fluoro-6-methylbenzamide] | 1.4 | – | > 15000 | – | 0.4 | – | – | – |
| Cc1cc(F)c(-c2ccn3nc(N)nc3c2)cc1C(=O)NCCC(O)c1ccc(Cl)cn1 (single isomer, unassigned) [Example 7, 5-(2-amino-[1,2,4]triazolo[1,5-a]pyridin-7-yl)-N-(3-(5-chloropyridin-2-yl)-3-hydroxypropyl)-4-fluoro-2-methylbenzamide] | 10 | – | > 15000 | – | 13 | – | – | – |
| [2H]C([2H])(CC([2H])(O)c1ccc(Cl)cc1)NC(=O)c1c(F)ccc(-c2ccn3nc(N)nc3c2)c1F (single isomer, unassigned) [Example 250, 3-(2-amino-[1,2,4]triazolo[1,5-a]pyridin-7-yl)-N-(3-(4-chlorophenyl)-3-hydroxypropyl-1,1,3-d3)-2,6-difluorobenzamide] | 13 | 21 | > 15000 | – | – | – | – | – |
| Cc1cc(F)c(-c2ccn3nc(N)nc3c2)c(F)c1C(=O)NCC[C@@H](O)c1ccc(Cl)cc1 [Example 278, (R)-3-(2-amino-[1,2,4]triazolo[1,5-a]pyridin-7-yl)-N-(3-(4-chlorophenyl)-3-hydroxypropyl)-2,4-difluoro-6-methylbenzamide] | 13 | 38 | > 15000 | – | – | – | – | – |
| Cc1ccc(-c2ccn3nc(N)nc3c2)c(F)c1C(=O)NCCC(c1ccccc1)C(F)(F)F (single isomer, unassigned) [Example 12, 3-(2-amino-[1,2,4]triazolo[1,5-a]pyridin-7-yl)-2-fluoro-6-methyl-N-(4,4,4-trifluoro-3-phenylbutyl)benzamide] | 3 | – | > 15000 | – | 9.2 | – | – | – |
| Cc1ccc(-c2ccn3nc(N)nc3c2)c(F)c1C(=O)NC(CF)CC(O)c1ccc(F)cc1 (single isomer, unassigned) [Example 28, 3-(2-amino-[1,2,4]triazolo[1,5-a]pyridin-7-yl)-2-fluoro-N-(1-fluoro-4-(4-fluorophenyl)-4-hydroxybutan-2-yl)-6-methylbenzamide] | 5.1 | – | 8800 | – | 4.9 | – | – | – |
| Nc1nc2cc(-c3ccc(Cl)c(C(=O)NC[C@@H](F)[C@H](O)c4ccc(F)cc4)c3F)ccn2n1 (single isomer, unassigned) [Example 297] | 3.7 | 1.6 | > 15000 | – | – | – | – | – |
| Nc1nc2cc(-c3ccc(Cl)c(C(=O)NCC(F)(F)C(O)c4ccc(Cl)c(F)c4)c3F)ccn2n1 (stereo not shown) [Example 190, 3-(2-amino-[1,2,4]triazolo[1,5-a]pyridin-7-yl)-6-chloro-N-(3-(4-chloro-3-fluorophenyl)-2,2-difluoro-3-hydroxypropyl)-2-fluorobenzamide] | 3.3 | 0.7 | > 15000 | – | – | – | – | – |
| Nc1nc2cc(-c3ccc(CF)c(C(=O)NCC(F)(F)[C@@H](O)c4ccc(F)cc4)c3F)ccn2n1 [Example 294, (S)-3-(2-amino-[1,2,4]triazolo[1,5-a]pyridin-7-yl)-N-(2,2-difluoro-3-(4-fluorophenyl)-3-hydroxypropyl)-2-fluoro-6-(fluoromethyl)benzamide] | 1.9 | 1.9 | > 15000 | – | – | – | – | – |
| COc1ccc(-c2ccn3nc(N)nc3c2)c(F)c1C(=O)NCC(F)(F)C(O)c1ccc(Cl)c(Cl)c1 (stereo not shown) [Example 268, 3-{2-amino-[1,2,4]triazolo[1,5-a]pyridin-7-yl}-N-[3-(3,4-dichlorophenyl)-2,2-difluoro-3-hydroxypropyl]-2-fluoro-6-methoxybenzamide] | 3.8 | – | 8800 | – | 4.3 | – | – | – |
| Cc1c(C(=O)NCC[C@H](O)c2ccc(Cl)cc2)cc(-c2ccn3nc(N)nc3c2)c(F)c1F [Example 99, (S)-5-(2-amino-[1,2,4]triazolo[1,5-a]pyridin-7-yl)-N-(3-(4-chlorophenyl)-3-hydroxypropyl)-3,4-difluoro-2-methylbenzamide] | 5.5 | 2.9 | > 15000 | – | – | – | – | – |
| Cc1ccc(-c2ccn3nc(N)nc3c2)cc1C(=O)NCC[C@@H](O)c1ccc(Cl)cc1 [Example 159, (R)-5-(2-amino-[1,2,4]triazolo[1,5-a]pyridin-7-yl)-N-(3-(4-chlorophenyl)-3-hydroxypropyl)-2-methylbenzamide] | 2.5 | – | > 15000 | 2.5 | – | – | 1.9 | 1.9 |
| [2H]C([2H])([2H])C(O)(c1ccc(F)cc1)C(F)CNC(=O)c1c(Cl)ccc(-c2ccn3nc(N)nc3c2)c1F (single isomer, unassigned) [Example 239, 3-(2-amino-[1,2,4]triazolo[1,5-a]pyridin-7-yl)-6-chloro-2-fluoro-N-(2-fluoro-3-(4-fluorophenyl)-3-hydroxybutyl-4,4,4-d3)benzamide] | 55 | – | > 15000 | – | 26 | – | – | – |
| Nc1nc2cc(-c3ccc(Cl)c(C(=O)NC[C@H](F)[C@@H](O)c4ccc(F)cc4)c3F)ccn2n1 (single isomer, unassigned) [Example 296] | 15 | 22 | 10000 | – | – | – | – | – |
